Consider three substances from patent US7078177B2, “Method of assaying for agonists or antagonist of Dynorphin A binding to the MAS receptor” (AstraZeneca AB, priority 2000, dated 2006).

The test system of one test is parental HEK-293 cells. As to the kind of experiment: FLIPR calcium mobilization assay, parental (non-transfected) HEK-293 cells. The class given is cell-based. Particulars: wild type (parental, non-transfected) HEK-293 cells; Fluo-3. The protocol:
(§1) A functional assay was performed with FLIPR (Fluorescent Imaging Plate Reader, Molecular Devices) using the fluorescent calcium indicator Fluo-3 (Molecular Probes) on a 96 well platform. HEK-293 cells, either expressing the receptor or wild type cells, were loaded with Fluo-3 as follows. Stable HEK-293 clones expressing rat and human MAS receptor or parental cells were plated at a density of 10,000 cells/well in a 96 well plate. On the day of the experiment, the MAS receptor cells were loaded with fluorescent solution (Dulbecco's modified medium with 10% fetal bovine serum containing 4 μM Fluo-3 and 20% pluronic acid). The cells were incubated at 37° C. for one hour in a humidified chamber. Following the incubation step, cells were washed five times in Hanks' with 20 mM Hepes and 0.1% BSA (pH 7.4). The cells were analyzed using the FLIPR system to measure the mobilization of intracellular calcium in response to different compounds.

Another test relates to MAS receptor. The test can be described thus: FLIPR calcium mobilization assay, HEK-293 cells expressing MAS receptor. The class given is cell-based, rat and human. The note with it: HEK-293 cells expressing the clone MAS receptor; Fluo-3. On the procedure:
HEK-293 cells were transfected with a mammalian expression construct coding for the rat and human MAS receptor (pcDNA 3.1 vector, Invitrogen) using the Superfect reagent (Qiagen). A stable receptor pool of MAS receptor was developed by applying a selection marker (G418, 0.9 mg/ml) and the cells were maintained in this selection medium. The presence of mRNA specific for clone MAS receptor was assessed by Northern blot analysis and by the reverse transcriptase polymerase chain reaction (RT-PCR).
as §1
On the technique in general: Calcium flux is commonly read through the fluorescence of an indicator in the cells.

Test [1] deals with mouse peritoneal macrophages. The note with it: administered to mice; not inhibited by naloxone; cited from earlier work.
The conditions of test [2]: non-thermal and mechanical analgesia, administered ICV; cited from earlier work.

Ends that are not written are not given here.

As for “YGGFLRRIRPKLKWDNQ-COOH or NH2 (not fully specified; printed as YGGFLRRIRPKLKWDNQ-COOH or NH2) [Dynorphin A-NH2, C-terminal amide analogue of Dynorphin A]”, the “calcium response (FLIPR signal)” value is on record as “not in the wild type cells” in the test with parental HEK-293 cells and “consistently elicited signals” in the test with MAS receptor.
For “YGGFLRRIRPKLKWDNQ-COOH (YGGFLRRIRPKLKWDNQ-OH) [Dynorphin A]”, in test [1], the phagocytosis entry is listed as “enhanced phagocytosis”. The figures for the “calcium response (FLIPR signal)” value in the test with parental HEK-293 cells and in the test with MAS receptor were “not in the wild type cells” and “consistently elicited signals”, respectively. Further, in test [2], the analgesia entry is recorded as “moderately effective”.
Consider “Dynorphin A 1-13: analogue (fragment 1-13) of Dynorphin A (YGGFLRRIRPKLK; Dynorphin A(1-13); UniProt P01213 207-219, looked up, fragment)”, for which the “calcium response (FLIPR signal)” value in the test with parental HEK-293 cells is reported as “not in the wild type cells”; in the test with MAS receptor, “consistently elicited signals”.
